This assay addresses human ERK-2 (Mitogen Activated Kinase 1) (Homo sapiens (Human), UniProt P28482). The experiment in a line: ERK-2 Enzymatic Assay. The class given is biochemical. The following applies: human ERK-2 enzyme 5 nM, 25 μM ATP, S/T17 peptide substrate; isomer = configuration of CR2R3. The method, boiled down:
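Recombinant human ERK-2 (aa 8-360, N-terminal 6-His, E. coli) with 3-fold serially diluted compound. Per-well rates from linear fits converted to percent of control; IC50 by four-parameter fit.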

SMILES strings stand for the structures.

The IC50 is the midpoint of a concentration-inhibition curve. Low values mean greater potency in that assay, high ones weaker potency in that assay.

Sequence of human ERK-2 (Mitogen Activated Kinase 1) (P28482 8-360): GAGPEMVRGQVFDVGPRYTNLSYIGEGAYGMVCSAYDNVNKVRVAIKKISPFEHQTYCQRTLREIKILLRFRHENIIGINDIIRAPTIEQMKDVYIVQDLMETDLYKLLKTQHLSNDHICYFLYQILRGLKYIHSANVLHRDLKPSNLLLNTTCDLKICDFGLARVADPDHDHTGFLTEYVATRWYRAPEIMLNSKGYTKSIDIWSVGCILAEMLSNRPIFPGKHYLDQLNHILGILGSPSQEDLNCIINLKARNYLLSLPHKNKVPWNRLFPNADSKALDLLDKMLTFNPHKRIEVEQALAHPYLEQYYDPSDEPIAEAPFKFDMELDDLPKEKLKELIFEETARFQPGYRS

On to `COc1ncccc1C[C@H]1CN(C)c2cc(-c3ccnc(Nc4ccnn4C)n3)cc3nnc1n23` [(S) I-43, 4-(3-((2-methoxypyridin-3-yl)methyl)-5-methyl-4,5-dihydro-3H-1,2,2a^1,5-tetraazaacenaphthylen-7-yl)-N-(1-methyl-1H-pyrazol-5-yl)pyrimidin-2-amine], for which the midpoint of inhibition, the IC50, lay at 1.33 nM. This lies in the single-digit nanomolar range. As for `Cn1nccc1Nc1nccc(-c2cc3n4c(nnc4c2)[C@H](Cc2ccc(F)cc2)CO3)n1` [(S) I-44, 4-(3-(4-fluorobenzyl)-3,4-dihydro-5-oxa-1,2,2a^1-triazaacenaphthylen-7-yl)-N-(1-methyl-1H-pyrazol-5-yl)pyrimidin-2-amine], it took 5 nM to reach half-maximal inhibition (IC50). The molecule `CC(C)C[C@@H]1COc2cc(-c3ccnc(Nc4ccnn4C)n3)cc3nnc1n23` [(S) I-45, 4-(3-isobutyl-3,4-dihydro-5-oxa-1,2,2a^1-triazaacenaphthylen-7-yl)-N-(1-methyl-1H-pyrazol-5-yl)pyrimidin-2-amine] returned a half-maximal inhibitory concentration (IC50) of 20.9 nM. For the molecule `COc1ccc(C[C@@H]2COc3cc(-c4ccnc(Nc5ccnn5C)n4)cc4nnc2n34)cc1F` [(S) I-46, 4-(3-(3-fluoro-4-methoxybenzyl)-3,4-dihydro-5-oxa-1,2,2a^1-triazaacenaphthylen-7-yl)-N-(1-methyl-1H-pyrazol-5-yl)pyrimidin-2-amine], it took 2.47 nM to reach half-maximal inhibition (IC50). Take `Cn1nccc1Nc1cc(-c2cc3n4c(nnc4c2)[C@H](Cn2cc(Cl)cn2)CCO3)ccn1` [(S) I-47, 4-(9-((4-chloro-1H-pyrazol-1-yl)methyl)-8,9-dihydro-7H-6-oxa-1,2,2a^1-triazabenzo[cd]azulen-4-yl)-N-(1-methyl-1H-pyrazol-5-yl)pyridin-2-amine]: the IC50 turned out to be 0.465 nM. Molecule `Cn1nccc1Nc1cc(-c2cc3n4c(nnc4c2)[C@H](Cc2ccc(Cl)cc2)CO3)ccn1` [(S) I-48, 4-(3-(4-chlorobenzyl)-3,4-dihydro-5-oxa-1,2,2a^1-triazaacenaphthylen-7-yl)-N-(1-methyl-1H-pyrazol-5-yl)pyridin-2-amine] returned an IC50 of 12.3 nM.

In the case of `COc1ccc(C[C@@H]2COc3cc(-c4ccnc(Nc5ccnn5C)n4)cc4nnc2n34)cc1` [(S) I-50, 4-(3-(4-methoxybenzyl)-3,4-dihydro-5-oxa-1,2,2a^1-triazaacenaphthylen-7-yl)-N-(1-methyl-1H-pyrazol-5-yl)pyrimidin-2-amine], the IC50 stood at 7.12 nM. As to `Cn1nccc1Nc1cc(-c2cc3n4c(nnc4c2)[C@H](Cc2ccc(F)c(F)c2)CO3)ccn1` [(S) I-54, 4-(3-(3,4-difluorobenzyl)-3,4-dihydro-5-oxa-1,2,2a^1-triazaacenaphthylen-7-yl)-N-(1-methyl-1H-pyrazol-5-yl)pyridin-2-amine], half-maximal inhibition (IC50) required 22.3 nM. The molecule `Cn1nccc1Nc1nccc(-c2cc3n4c(nnc4c2)[C@H](Cn2cc(C4CC4)cn2)CCO3)n1` [(S) I-56, 4-(9-((4-cyclopropyl-1H-pyrazol-1-yl)methyl)-8,9-dihydro-7H-6-oxa-1,2,2a^1-triazabenzo[cd]azulen-4-yl)-N-(1-methyl-1H-pyrazol-5-yl)pyrimidin-2-amine] registered an IC50 of 1.39 nM. Regarding `Cn1nccc1Nc1nccc(-c2cc3n4c(nnc4c2)[C@@H](Cc2ccc(F)cc2)CCO3)n1` [(S) I-58, 4-(9-(4-fluorobenzyl)-8,9-dihydro-7H-6-oxa-1,2,2a^1-triazabenzo[cd]azulen-4-yl)-N-(1-methyl-1H-pyrazol-5-yl)pyrimidin-2-amine], the IC50 is 0.311 nM. For the molecule `COc1ccc(C[C@H]2CC(=O)N(C)c3cc(-c4ccnc(Nc5ccnn5C)n4)cc4nnc2n34)cc1` [(S) I-62, 9-(4-methoxybenzyl)-6-methyl-4-(2-((1-methyl-1H-pyrazol-5-yl)amino)pyrimidin-4-yl)-8,9-dihydro-1,2,2a^1,6-tetraazabenzo[cd]azulen-7(6H)-one], the IC50 came out at 44 nM. Next, `CCC[C@H]1CC(=O)N(C)c2cc(-c3ccnc(Nc4ccnn4C)n3)cc3nnc1n23` [(S) I-64, 6-methyl-4-(2-((1-methyl-1H-pyrazol-5-yl)amino)pyrimidin-4-yl)-9-propyl-8,9-dihydro-1,2,2a^1,6-tetraazabenzo[cd]azulen-7(6H)-one]: 0.149 nM. For `CN1C(=O)C[C@@H](C2CC2)c2nnc3cc(-c4ccnc(Nc5ccnn5C)n4)cc1n23` [(S) I-65, 9-cyclopropyl-6-methyl-4-(2-((1-methyl-1H-pyrazol-5-yl)amino)pyrimidin-4-yl)-8,9-dihydro-1,2,2a^1,6-tetraazabenzo[cd]azulen-7(6H)-one], the IC50 came out at 119 nM.

For `Cn1nccc1Nc1nccc(-c2cc3n4c(nnc4c2)[C@@H](Oc2ccc(F)cc2)CCO3)n1` [(S) I-66, 4-(9-(4-fluorophenoxy)-8,9-dihydro-7H-6-oxa-1,2,2a^1-triazabenzo[cd]azulen-4-yl)-N-(1-methyl-1H-pyrazol-5-yl)pyrimidin-2-amine], the IC50 is 0.02 nM. This IC50 is about 6000-fold lower than that of the molecule before.

On to `CN1C(=O)C[C@@H](CC(F)(F)F)c2nnc3cc(-c4ccnc(Nc5ccnn5C)n4)cc1n23` [(S) I-71, 6-methyl-4-(2-((1-methyl-1H-pyrazol-5-yl)amino)pyrimidin-4-yl)-9-(2,2,2-trifluoroethyl)-8,9-dihydro-1,2,2a^1,6-tetraazabenzo[cd]azulen-7(6H)-one], for which the half-inhibitory concentration (IC50) came to 189 nM. Consider `COc1ccc(C[C@H]2CC(=O)N(C)c3cc(-c4ccnc(Nc5ccnn5C)c4)cc4nnc2n34)c(F)c1` [(S) I-74, 9-(2-fluoro-4-methoxybenzyl)-6-methyl-4-(2-((1-methyl-1H-pyrazol-5-yl)amino)pyridin-4-yl)-8,9-dihydro-1,2,2a^1,6-tetraazabenzo[cd]azulen-7(6H)-one], for which half-maximal inhibition (IC50) was put at 2.85 nM. `CC(C)C[C@H]1CC(=O)N(C)c2cc(-c3ccnc(Nc4ccnn4C)c3)cc3nnc1n23` [(S) I-75, 9-isobutyl-6-methyl-4-(2-((1-methyl-1H-pyrazol-5-yl)amino)pyridin-4-yl)-8,9-dihydro-1,2,2a^1,6-tetraazabenzo[cd]azulen-7(6H)-one] registered an IC50 of 718 nM. Compared with the last molecule, the IC50 is about 250-fold higher.

`Cn1nccc1Nc1nccc(-c2cc3n4c(nnc4c2)[C@@H](Oc2cncc(Cl)c2)CCO3)n1` [(S) I-77, 4-(9-((5-chloropyridin-3-yl)oxy)-8,9-dihydro-7H-6-oxa-1,2,2a^1-triazabenzo[cd]azulen-4-yl)-N-(1-methyl-1H-pyrazol-5-yl)pyrimidin-2-amine] gave a 50% inhibitory concentration (IC50) of under 0.02 nM.

Take `Cn1nccc1Nc1cc(-c2cc3n4c(nnc4c2)[C@@H](Oc2cncc(Cl)c2)CCO3)ccn1` [(S) I-78, 4-(9-((5-chloropyridin-3-yl)oxy)-8,9-dihydro-7H-6-oxa-1,2,2a^1-triazabenzo[cd]azulen-4-yl)-N-(1-methyl-1H-pyrazol-5-yl)pyridin-2-amine]: the IC50 is under 0.02 nM.

The molecule `Cn1nccc1Nc1nccc(-c2cc3n4c(nnc4c2)[C@H](Cc2ccc(F)c(Cl)c2)CO3)n1` [(S) I-82, 4-(3-(3-chloro-4-fluorobenzyl)-3,4-dihydro-5-oxa-1,2,2a^1-triazaacenaphthylen-7-yl)-N-(1-methyl-1H-pyrazol-5-yl)pyrimidin-2-amine] registered an IC50 of 12.4 nM. In the case of `CN1C(=O)C[C@H](Cc2ccc(Cl)cn2)c2nnc3cc(-c4ccnc(Nc5ccnn5C)n4)cc1n23` [(S) I-84, 9-((5-chloropyridin-2-yl)methyl)-6-methyl-4-(2-((1-methyl-1H-pyrazol-5-yl)amino)pyrimidin-4-yl)-8,9-dihydro-1,2,2a^1,6-tetraazabenzo[cd]azulen-7(6H)-one], 32.7 nM corresponded to half-maximal inhibition (IC50). Compared with the last molecule, the IC50 is about 2.6-fold higher. `COc1ccc(C[C@H]2CC(=O)N(C)c3cc(-c4ccnc(Nc5ccnn5C)n4)cc4nnc2n34)c(F)c1` [(S) I-85, 9-(2-fluoro-4-methoxybenzyl)-6-methyl-4-(2-((1-methyl-1H-pyrazol-5-yl)amino)pyrimidin-4-yl)-8,9-dihydro-1,2,2a^1,6-tetraazabenzo[cd]azulen-7(6H)-one] gave an IC50 of 25.9 nM. In turn, `CC(C)[C@@H]1CC(=O)N(C)c2cc(-c3ccnc(Nc4ccnn4C)c3)cc3nnc1n23` [(S) I-87, 9-isopropyl-6-methyl-4-(2-((1-methyl-1H-pyrazol-5-yl)amino)pyridin-4-yl)-8,9-dihydro-1,2,2a^1,6-tetraazabenzo[cd]azulen-7(6H)-one] showed an IC50 of 1000 nM. For the molecule `Cn1nccc1Nc1nccc(-c2cc3n4c(nnc4c2)[C@H](Cc2cccc(Cl)c2)CO3)n1` [(S) I-88, 4-(3-(3-chlorobenzyl)-3,4-dihydro-5-oxa-1,2,2a^1-triazaacenaphthylen-7-yl)-N-(1-methyl-1H-pyrazol-5-yl)pyrimidin-2-amine], the IC50 came to 6.36 nM.

Consider `Cn1nccc1Nc1cc(-c2cc3n4c(nnc4c2)[C@H](Cn2cc(C(F)(F)F)cn2)CCO3)ccn1` [(S) I-89, N-(1-methyl-1H-pyrazol-5-yl)-4-(9-((4-(trifluoromethyl)-1H-pyrazol-1-yl)methyl)-8,9-dihydro-7H-6-oxa-1,2,2a^1-triazabenzo[cd]azulen-4-yl)pyridin-2-amine], for which the IC50 is 2.31 nM. For `Cn1nccc1Nc1nccc(-c2cc3n4c(nnc4c2)[C@@H](Oc2ccccc2)CCO3)n1` [(S) I-90, N-(1-methyl-1H-pyrazol-5-yl)-4-(9-phenoxy-8,9-dihydro-7H-6-oxa-1,2,2a^1-triazabenzo[cd]azulen-4-yl)pyrimidin-2-amine] the value was under 0.02 nM; for `Cn1nccc1Nc1nccc(-c2cc3n4c(nnc4c2)[C@@H](Oc2cncc(F)c2)CCO3)n1` [(S) I-91, 4-(9-((5-fluoropyridin-3-yl)oxy)-8,9-dihydro-7H-6-oxa-1,2,2a^1-triazabenzo[cd]azulen-4-yl)-N-(1-methyl-1H-pyrazol-5-yl)pyrimidin-2-amine], 0.035 nM; for `Cc1cc(C[C@@H]2CCOc3cc(-c4ccnc(Nc5ccnn5C)n4)cc4nnc2n34)on1` [(S) I-93, N-(1-methyl-1H-pyrazol-5-yl)-4-(9-((3-methylisoxazol-5-yl)methyl)-8,9-dihydro-7H-6-oxa-1,2,2a^1-triazabenzo[cd]azulen-4-yl)pyrimidin-2-amine], 18.2 nM. In the case of `COc1cccc(C[C@@H]2COc3cc(-c4ccnc(Nc5ccnn5C)c4)cc4nnc2n34)c1` [(S) I-97, 4-(3-(3-methoxybenzyl)-3,4-dihydro-5-oxa-1,2,2a^1-triazaacenaphthylen-7-yl)-N-(1-methyl-1H-pyrazol-5-yl)pyridin-2-amine], the IC50 came out at 0.794 nM.

For the origin of these results see patent US9867833B2, “Serine/threonine kinase inhibitors” (GENENTECH, INC., priority 2013, dated 2018).
